In patent US6355799B1, “Substituted benzene compounds, process for their preparation, and herbicidal and defoliant compositions containing them” (ISK Americas Incorporated, priority 1997, dated 2002):

How the values were obtained:
Format in all cases: in vivo
[1] = system: redroot pigweed (Amaranthus retroflexus, AMARE); assay: Pre-emerge test, greenhouse herbicide activity screening; details: rated 14 days after application, 0 = no damage, 100 = complete death
Summary of the method: (§1)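 Rating: 0–100 visual injury, 14 DAA. Application: acetone, 187 l/ha, 15–1000 g ai/ha, flat-fan track sprayer with nozzle 40–45 cm above soil or canopy. Post-emerge runs used 0.25% v/v surfactant on 2–3 leaf plants.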

[2] = system: field corn (Zea mays L., var. Dekalb 535, CORN); assay: Pre-emerge test, crop safety; details: rated 14 days after application, 0 = no damage, 100 = complete death
Summary of the method: (§2)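 Herbicidal damage is scored 0 (none) to 100 (complete plant death) two weeks after a simulated field spray. Rates span 15–1000 g ai/ha, delivered in acetone at 187 l/ha. For post-emergence treatments, plants have 2–3 leaves and the spray carries 0.25% v/v non-ionic surfactant.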

[3] = system: upland rice (Oryza sp., var. Tebonnet, RICE); assay: Pre-emerge test, crop safety; details: rated 14 days after application, 0 = no damage, 100 = complete death
Summary of the method: as §2

[4] = system: ivyleaf morningglory (Ipomoea hederacea, IPOHE); assay: Post-emerge test, greenhouse herbicide activity screening; details: post-emerge, 14 days after application, rating scale 0-100
Summary of the method: (§3)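 Compounds in acetone were track-sprayed at 187 l/ha, 15–1000 g ai/ha, onto sandy loam pots. Pre-emerge seeds were sown one day before spraying, with surface watering afterwards. Post-emerge plants were at the 2–3 leaf stage and sprayed with 0.25% v/v non-ionic surfactant. Injury was rated 0–100 at 14 days.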

[5] = system: johnsongrass (Sorghum halepense, SORHA); assay: as above; details: post-emerge, 14 days after application, rating scale 0-100
Summary of the method: as §3

[6] = system: barnyardgrass (Echinochloa crus-galli, ECHCG); assay: as above; details: post-emerge, 14 days after application, rating scale 0-100
Summary of the method: as §3

[7] = system: lambsquarters (Chenopodium album, CHEAL); assay: as above; details: post-emerge, 14 days after application, rating scale 0-100
Summary of the method: as §3

[8] = system: sicklepod (Cassia obtusifolia, CASOB); assay: as above; details: post-emerge, 14 days after application, rating scale 0-100
Summary of the method: as §3

[9] = system: green foxtail (Setaria viridis, SETVI); assay: as above; details: post-emerge, 14 days after application, rating scale 0-100
Summary of the method: as §3

[10] = system: large crabgrass (Digitaria sanguinalis, DIGSA); assay: as above; details: post-emerge, 14 days after application, rating scale 0-100
Summary of the method: as §3

[11] = system: velvetleaf (Abutilon theophrasti, ABUTH); assay: as above; details: post-emerge, 14 days after application, rating scale 0-100
Summary of the method: as §3

[12] = system: redroot pigweed (Amaranthus retroflexus, AMARE); assay: as above; details: post-emerge, 14 days after application, rating scale 0-100
Summary of the method: as §3

[13] = system: ivyleaf morningglory (Ipomoea hederacea, IPOHE); assay: Pre-emerge test, greenhouse herbicide activity screening; details: rated 14 days after application, 0 = no damage, 100 = complete death
Summary of the method: (§4)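 Compounds in acetone were track-sprayed at 15–1000 g ai/ha: pre-emergence onto soil sown the previous day, then top-watered to incorporate and later bottom-watered; post-emergence onto 2–3 leaf plants with 0.25% v/v surfactant, bottom-watered only. Ratings on a 0–100 phytotoxicity scale were taken at day 14.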

[14] = system: johnsongrass (Sorghum halepense, SORHA); assay: as above; details: rated 14 days after application, 0 = no damage, 100 = complete death
Summary of the method: as §4

[15] = system: barnyardgrass (Echinochloa crus-galli, ECHCG); assay: as above; details: rated 14 days after application, 0 = no damage, 100 = complete death
Summary of the method: as §4

[16] = system: lambsquarters (Chenopodium album, CHEAL); assay: as above; details: rated 14 days after application, 0 = no damage, 100 = complete death
Summary of the method: as §4

[17] = system: sicklepod (Cassia obtusifolia, CASOB); assay: as above; details: rated 14 days after application, 0 = no damage, 100 = complete death
Summary of the method: as §4

[18] = system: green foxtail (Setaria viridis, SETVI); assay: as above; details: rated 14 days after application, 0 = no damage, 100 = complete death
Summary of the method: as §4

[19] = system: large crabgrass (Digitaria sanguinalis, DIGSA); assay: as above; details: rated 14 days after application, 0 = no damage, 100 = complete death
Summary of the method: as §4

[20] = system: velvetleaf (Abutilon theophrasti, ABUTH); assay: as above; details: rated 14 days after application, 0 = no damage, 100 = complete death
Summary of the method: as §4

[21] = system: field corn (Zea mays L., var. Dekalb 535, CORN); assay: Post-emerge test, crop safety; details: post-emerge, 14 days after application, rating scale 0-100
Summary of the method: as §1

[22] = system: upland rice (Oryza sp., var. Tebonnet, RICE); assay: Post-emerge test, crop safety; details: post-emerge, 14 days after application, rating scale 0-100
Summary of the method: as §1

COc1c(Cl)cc(F)c(-n2c(=O)cc(C(F)(F)F)n(C)c2=O)c1NC(=O)CCc1ccccc1 [2-86]
Pre-emerge Herbicidal Activity, phytotoxicity rating (0-100), AMARE ([1]; 63 g ai/ha): 100 | Pre-emerge Herbicidal Activity, phytotoxicity rating (0-100), AMARE ([1]; 250 g ai/ha): 100 | Pre-emerge phytotoxicity rating (0-100), crop damage, CORN ([2]; 63 g ai/ha): 95 | Pre-emerge phytotoxicity rating (0-100), crop damage, CORN ([2]; 250 g ai/ha): 99 | Pre-emerge phytotoxicity rating (0-100), crop damage, RICE ([3]; 63 g ai/ha): 90 | Pre-emerge phytotoxicity rating (0-100), crop damage, RICE ([3]; 250 g ai/ha): 99 | phytotoxicity rating IPOHE ([4]; 63 g ai/ha): 100 | phytotoxicity rating IPOHE ([4]; 250 g ai/ha): 100 | phytotoxicity rating SORHA ([5]; 63 g ai/ha): 70 | phytotoxicity rating SORHA ([5]; 250 g ai/ha): 100 | phytotoxicity rating ECHCG ([6]; 63 g ai/ha): 90 | phytotoxicity rating ECHCG ([6]; 250 g ai/ha): 100 | phytotoxicity rating CHEAL ([7]; 63 g ai/ha): 100 | phytotoxicity rating CHEAL ([7]; 250 g ai/ha): 100 | phytotoxicity rating CASOB ([8]; 63 g ai/ha): 100 | phytotoxicity rating CASOB ([8]; 250 g ai/ha): 100 | phytotoxicity rating SETVI ([9]; 63 g ai/ha): 90 | phytotoxicity rating SETVI ([9]; 250 g ai/ha): 100 | phytotoxicity rating DIGSA ([10]; 63 g ai/ha): 30 | phytotoxicity rating DIGSA ([10]; 250 g ai/ha): 95 | phytotoxicity rating ABUTH ([11]; 63 g ai/ha): 100 | phytotoxicity rating ABUTH ([11]; 250 g ai/ha): 100 | phytotoxicity rating AMARE ([12]; 63 g ai/ha): 100 | phytotoxicity rating AMARE ([12]; 250 g ai/ha): 100 | Pre-emerge Herbicidal Activity, phytotoxicity rating (0-100), IPOHE ([13]; 63 g ai/ha): 90 | Pre-emerge Herbicidal Activity, phytotoxicity rating (0-100), IPOHE ([13]; 250 g ai/ha): 100 | Pre-emerge Herbicidal Activity, phytotoxicity rating (0-100), SORHA ([14]; 63 g ai/ha): 99 | Pre-emerge Herbicidal Activity, phytotoxicity rating (0-100), SORHA ([14]; 250 g ai/ha): 100 | Pre-emerge Herbicidal Activity, phytotoxicity rating (0-100), ECHCG ([15]; 63 g ai/ha): 95 | Pre-emerge Herbicidal Activity, phytotoxicity rating (0-100), ECHCG ([15]; 250 g ai/ha): 100 | Pre-emerge Herbicidal Activity, phytotoxicity rating (0-100), CHEAL ([16]; 63 g ai/ha): 100 | Pre-emerge Herbicidal Activity, phytotoxicity rating (0-100), CHEAL ([16]; 250 g ai/ha): 100 | Pre-emerge Herbicidal Activity, phytotoxicity rating (0-100), CASOB ([17]; 63 g ai/ha): 100 | Pre-emerge Herbicidal Activity, phytotoxicity rating (0-100), CASOB ([17]; 250 g ai/ha): 95 | Pre-emerge Herbicidal Activity, phytotoxicity rating (0-100), SETVI ([18]; 63 g ai/ha): 100 | Pre-emerge Herbicidal Activity, phytotoxicity rating (0-100), SETVI ([18]; 250 g ai/ha): 100 | Pre-emerge Herbicidal Activity, phytotoxicity rating (0-100), DIGSA ([19]; 63 g ai/ha): 100 | Pre-emerge Herbicidal Activity, phytotoxicity rating (0-100), DIGSA ([19]; 250 g ai/ha): 100 | Pre-emerge Herbicidal Activity, phytotoxicity rating (0-100), ABUTH ([20]; 63 g ai/ha): 100 | Pre-emerge Herbicidal Activity, phytotoxicity rating (0-100), ABUTH ([20]; 250 g ai/ha): 100 | phytotoxicity rating CORN ([21]; 63 g ai/ha): 90 | phytotoxicity rating CORN ([21]; 250 g ai/ha): 100 | phytotoxicity rating RICE ([22]; 63 g ai/ha): 80 | phytotoxicity rating RICE ([22]; 250 g ai/ha): 100

Cn1c(C(F)(F)F)cc(=O)n(-c2c(F)cc(Cl)c(OCC#N)c2NC(=O)CCc2ccccc2)c1=O [2-87]
Pre-emerge Herbicidal Activity, phytotoxicity rating (0-100), AMARE ([1]; 63 g ai/ha): 100 | Pre-emerge Herbicidal Activity, phytotoxicity rating (0-100), AMARE ([1]; 250 g ai/ha): 100 | Pre-emerge phytotoxicity rating (0-100), crop damage, CORN ([2]; 63 g ai/ha): 5 | Pre-emerge phytotoxicity rating (0-100), crop damage, CORN ([2]; 250 g ai/ha): 75 | Pre-emerge phytotoxicity rating (0-100), crop damage, RICE ([3]; 63 g ai/ha): 40 | Pre-emerge phytotoxicity rating (0-100), crop damage, RICE ([3]; 250 g ai/ha): 90 | phytotoxicity rating IPOHE ([4]; 63 g ai/ha): 100 | phytotoxicity rating IPOHE ([4]; 250 g ai/ha): 100 | phytotoxicity rating SORHA ([5]; 63 g ai/ha): 10 | phytotoxicity rating SORHA ([5]; 250 g ai/ha): 50 | phytotoxicity rating ECHCG ([6]; 63 g ai/ha): 10 | phytotoxicity rating ECHCG ([6]; 250 g ai/ha): 50 | phytotoxicity rating CHEAL ([7]; 63 g ai/ha): 80 | phytotoxicity rating CHEAL ([7]; 250 g ai/ha): 90 | phytotoxicity rating CASOB ([8]; 63 g ai/ha): 40 | phytotoxicity rating CASOB ([8]; 250 g ai/ha): 100 | phytotoxicity rating SETVI ([9]; 63 g ai/ha): 30 | phytotoxicity rating SETVI ([9]; 250 g ai/ha): 40 | phytotoxicity rating DIGSA ([10]; 63 g ai/ha): 10 | phytotoxicity rating DIGSA ([10]; 250 g ai/ha): 50 | phytotoxicity rating ABUTH ([11]; 63 g ai/ha): 100 | phytotoxicity rating ABUTH ([11]; 250 g ai/ha): 100 | phytotoxicity rating AMARE ([12]; 63 g ai/ha): 100 | phytotoxicity rating AMARE ([12]; 250 g ai/ha): 100 | Pre-emerge Herbicidal Activity, phytotoxicity rating (0-100), IPOHE ([13]; 63 g ai/ha): 90 | Pre-emerge Herbicidal Activity, phytotoxicity rating (0-100), IPOHE ([13]; 250 g ai/ha): 100 | Pre-emerge Herbicidal Activity, phytotoxicity rating (0-100), SORHA ([14]; 63 g ai/ha): 50 | Pre-emerge Herbicidal Activity, phytotoxicity rating (0-100), SORHA ([14]; 250 g ai/ha): 85 | Pre-emerge Herbicidal Activity, phytotoxicity rating (0-100), ECHCG ([15]; 63 g ai/ha): 60 | Pre-emerge Herbicidal Activity, phytotoxicity rating (0-100), ECHCG ([15]; 250 g ai/ha): 90 | Pre-emerge Herbicidal Activity, phytotoxicity rating (0-100), CHEAL ([16]; 63 g ai/ha): 100 | Pre-emerge Herbicidal Activity, phytotoxicity rating (0-100), CHEAL ([16]; 250 g ai/ha): 100 | Pre-emerge Herbicidal Activity, phytotoxicity rating (0-100), CASOB ([17]; 63 g ai/ha): 100 | Pre-emerge Herbicidal Activity, phytotoxicity rating (0-100), CASOB ([17]; 250 g ai/ha): 100 | Pre-emerge Herbicidal Activity, phytotoxicity rating (0-100), SETVI ([18]; 63 g ai/ha): 90 | Pre-emerge Herbicidal Activity, phytotoxicity rating (0-100), SETVI ([18]; 250 g ai/ha): 100 | Pre-emerge Herbicidal Activity, phytotoxicity rating (0-100), DIGSA ([19]; 63 g ai/ha): 80 | Pre-emerge Herbicidal Activity, phytotoxicity rating (0-100), DIGSA ([19]; 250 g ai/ha): 100 | Pre-emerge Herbicidal Activity, phytotoxicity rating (0-100), ABUTH ([20]; 63 g ai/ha): 100 | Pre-emerge Herbicidal Activity, phytotoxicity rating (0-100), ABUTH ([20]; 250 g ai/ha): 100 | phytotoxicity rating CORN ([21]; 63 g ai/ha): 30 | phytotoxicity rating CORN ([21]; 250 g ai/ha): 80 | phytotoxicity rating RICE ([22]; 63 g ai/ha): 40 | phytotoxicity rating RICE ([22]; 250 g ai/ha): 75
